According to patent US9682995B2, “Amino-substituted isothiazoles” (BAYER PHARMA AKTIENGESELLSCHAFT, priority 2013, dated 2017):

How the values were obtained:
Assay in all cases: Kinase Profiling (KINOMEscan)
Assay type in all cases: binding
[1] = target: 456 kinases (of these 395 non-mutant kinases) (Homo sapiens, UniProt O00238); settings: BMPR1B; 10 μM
[2] = target: 456 kinases (of these 395 non-mutant kinases) (Homo sapiens, UniProt O75582); settings: 10 μM
[3] = target: 456 kinases (of these 395 non-mutant kinases) (Homo sapiens, UniProt P00519, H396P); settings: 10 μM
[4] = target: 456 kinases (of these 395 non-mutant kinases) (Homo sapiens, UniProt P04049); settings: RAF1; 10 μM
[5] = target: 456 kinases (of these 395 non-mutant kinases) (Homo sapiens, UniProt P04629); settings: TRKA; 10 μM
[6] = target: 456 kinases (of these 395 non-mutant kinases) (Homo sapiens, UniProt P07332); settings: FES; 10 μM
[7] = target: 456 kinases (of these 395 non-mutant kinases) (Homo sapiens, UniProt P07949); settings: RET; 10 μM
[8] = target: 456 kinases (of these 395 non-mutant kinases) (Homo sapiens, UniProt P08581, M1250T); settings: MET(M1250T); 10 μM
[9] = target: 456 kinases (of these 395 non-mutant kinases) (Homo sapiens, UniProt P15056); settings: BRAF; 10 μM
[10] = target: 456 kinases (of these 395 non-mutant kinases) (Homo sapiens, UniProt P21709); settings: EPHA1; 10 μM
[11] = target: 456 kinases (of these 395 non-mutant kinases) (Homo sapiens, UniProt P27448); settings: MARK3; 10 μM
[12] = target: 456 kinases (of these 395 non-mutant kinases) (Homo sapiens, UniProt P41240); settings: CSK; 10 μM
[13] = target: 456 kinases (of these 395 non-mutant kinases) (Homo sapiens, UniProt P42680); settings: TEC; 10 μM
[14] = target: 456 kinases (of these 395 non-mutant kinases) (Homo sapiens, UniProt P48730); settings: CSNK1D; 10 μM
[15] = target: 456 kinases (of these 395 non-mutant kinases) (Homo sapiens, UniProt P52333); settings: JAK3(JH1domain-catalytic); 10 μM
[16] = target: 456 kinases (of these 395 non-mutant kinases) (Homo sapiens, UniProt P53355); settings: DAPK1; 10 μM
[17] = target: 456 kinases (of these 395 non-mutant kinases) (Homo sapiens, UniProt Q00535); settings: CDK5; 10 μM
[18] = target: 456 kinases (of these 395 non-mutant kinases) (Homo sapiens, UniProt Q07912); settings: TNK2; 10 μM
[19] = target: 456 kinases (of these 395 non-mutant kinases) (Homo sapiens, UniProt Q16659); settings: ERK3; 10 μM
[20] = target: 456 kinases (of these 395 non-mutant kinases) (Homo sapiens, UniProt Q59H18); settings: TNNI3K; 10 μM
[21] = target: 456 kinases (of these 395 non-mutant kinases) (Homo sapiens, UniProt Q6P3R8); settings: NEK5; 10 μM
[22] = target: 456 kinases (of these 395 non-mutant kinases) (Homo sapiens, UniProt Q86Z02); settings: HIPK1; 10 μM
[23] = target: 456 kinases (of these 395 non-mutant kinases) (Homo sapiens, UniProt Q8IU85); settings: CAMK1D; 10 μM
[24] = target: 456 kinases (of these 395 non-mutant kinases) (Homo sapiens, UniProt Q8IY84); settings: NIM1; 10 μM
[25] = target: 456 kinases (of these 395 non-mutant kinases) (Homo sapiens, UniProt Q96BR1); settings: SGK3; 10 μM
[26] = target: 456 kinases (of these 395 non-mutant kinases) (Homo sapiens, UniProt Q96Q40); settings: PFTAIRE2; 10 μM
[27] = target: 456 kinases (of these 395 non-mutant kinases) (Homo sapiens, UniProt Q9BWU1); settings: CDK11; 10 μM
[28] = target: 456 kinases (of these 395 non-mutant kinases) (Homo sapiens, UniProt Q9UBE8); settings: NLK; 10 μM
[29] = target: 456 kinases (of these 395 non-mutant kinases) (Homo sapiens, UniProt Q9UEW8); settings: STK39; 10 μM
[30] = target: 456 kinases (of these 395 non-mutant kinases) (Homo sapiens, UniProt Q9UKI8); settings: TLK1; 10 μM
[31] = target: 456 kinases (of these 395 non-mutant kinases) (Homo sapiens, UniProt Q9UM73); settings: ALK; 10 μM
[32] = target: 456 kinases (of these 395 non-mutant kinases) (Mycobacterium tuberculosis, UniProt P9WI81)
456 kinases (of these 395 non-mutant kinases) (Mycobacterium tuberculosis, UniProt P9WI81), sequence (P9WI81 2-626 limits assumed, change not shown): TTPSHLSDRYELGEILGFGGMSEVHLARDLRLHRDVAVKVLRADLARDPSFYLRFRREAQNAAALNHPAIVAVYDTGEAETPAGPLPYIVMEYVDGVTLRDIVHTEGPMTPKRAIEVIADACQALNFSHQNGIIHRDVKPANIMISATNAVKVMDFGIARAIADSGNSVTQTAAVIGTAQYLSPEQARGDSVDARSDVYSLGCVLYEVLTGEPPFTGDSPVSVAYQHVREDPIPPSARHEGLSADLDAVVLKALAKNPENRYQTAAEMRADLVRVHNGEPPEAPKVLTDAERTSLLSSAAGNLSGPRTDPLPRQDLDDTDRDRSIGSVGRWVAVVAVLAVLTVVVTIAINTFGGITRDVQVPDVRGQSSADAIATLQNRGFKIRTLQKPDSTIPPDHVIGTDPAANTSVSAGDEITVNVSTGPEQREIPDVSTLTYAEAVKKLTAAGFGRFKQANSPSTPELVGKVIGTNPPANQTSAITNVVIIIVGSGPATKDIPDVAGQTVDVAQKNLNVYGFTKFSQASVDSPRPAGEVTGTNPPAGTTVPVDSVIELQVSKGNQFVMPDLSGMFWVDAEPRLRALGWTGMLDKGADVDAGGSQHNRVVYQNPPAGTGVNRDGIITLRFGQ

456 kinases (of these 395 non-mutant kinases) (Homo sapiens, UniProt P07949), sequence (P07949 29-1114 limits assumed, stated change not applied): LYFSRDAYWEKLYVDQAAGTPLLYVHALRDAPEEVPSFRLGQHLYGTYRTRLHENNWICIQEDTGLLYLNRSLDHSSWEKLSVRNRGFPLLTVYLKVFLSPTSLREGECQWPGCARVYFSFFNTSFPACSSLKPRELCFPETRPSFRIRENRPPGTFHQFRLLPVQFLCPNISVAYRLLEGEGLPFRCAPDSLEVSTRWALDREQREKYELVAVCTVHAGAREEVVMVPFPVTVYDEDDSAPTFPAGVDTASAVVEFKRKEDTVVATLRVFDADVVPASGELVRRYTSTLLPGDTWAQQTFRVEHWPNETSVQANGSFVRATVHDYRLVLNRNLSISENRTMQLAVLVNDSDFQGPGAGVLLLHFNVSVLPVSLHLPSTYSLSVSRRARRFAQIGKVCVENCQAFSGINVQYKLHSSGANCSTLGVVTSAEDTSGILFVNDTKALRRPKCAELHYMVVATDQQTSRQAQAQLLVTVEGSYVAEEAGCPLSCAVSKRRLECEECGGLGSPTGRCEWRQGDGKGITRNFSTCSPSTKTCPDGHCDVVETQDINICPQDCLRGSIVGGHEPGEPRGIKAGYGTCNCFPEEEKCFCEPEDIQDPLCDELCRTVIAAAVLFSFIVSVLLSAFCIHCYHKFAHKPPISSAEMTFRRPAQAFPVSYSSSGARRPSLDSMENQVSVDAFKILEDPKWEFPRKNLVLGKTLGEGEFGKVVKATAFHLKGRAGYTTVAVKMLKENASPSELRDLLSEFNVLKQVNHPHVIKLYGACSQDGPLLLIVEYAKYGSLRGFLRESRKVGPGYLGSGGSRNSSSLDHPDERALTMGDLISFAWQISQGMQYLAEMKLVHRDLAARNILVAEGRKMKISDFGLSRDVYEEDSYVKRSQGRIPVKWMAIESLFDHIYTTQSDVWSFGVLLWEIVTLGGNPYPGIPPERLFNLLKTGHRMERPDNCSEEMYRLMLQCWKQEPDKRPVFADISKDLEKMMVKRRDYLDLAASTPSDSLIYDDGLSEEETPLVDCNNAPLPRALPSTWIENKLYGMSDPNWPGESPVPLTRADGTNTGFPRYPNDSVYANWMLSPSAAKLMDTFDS
456 kinases (of these 395 non-mutant kinases) (Homo sapiens, UniProt P21709), sequence (P21709 26-976 limits assumed, change not shown): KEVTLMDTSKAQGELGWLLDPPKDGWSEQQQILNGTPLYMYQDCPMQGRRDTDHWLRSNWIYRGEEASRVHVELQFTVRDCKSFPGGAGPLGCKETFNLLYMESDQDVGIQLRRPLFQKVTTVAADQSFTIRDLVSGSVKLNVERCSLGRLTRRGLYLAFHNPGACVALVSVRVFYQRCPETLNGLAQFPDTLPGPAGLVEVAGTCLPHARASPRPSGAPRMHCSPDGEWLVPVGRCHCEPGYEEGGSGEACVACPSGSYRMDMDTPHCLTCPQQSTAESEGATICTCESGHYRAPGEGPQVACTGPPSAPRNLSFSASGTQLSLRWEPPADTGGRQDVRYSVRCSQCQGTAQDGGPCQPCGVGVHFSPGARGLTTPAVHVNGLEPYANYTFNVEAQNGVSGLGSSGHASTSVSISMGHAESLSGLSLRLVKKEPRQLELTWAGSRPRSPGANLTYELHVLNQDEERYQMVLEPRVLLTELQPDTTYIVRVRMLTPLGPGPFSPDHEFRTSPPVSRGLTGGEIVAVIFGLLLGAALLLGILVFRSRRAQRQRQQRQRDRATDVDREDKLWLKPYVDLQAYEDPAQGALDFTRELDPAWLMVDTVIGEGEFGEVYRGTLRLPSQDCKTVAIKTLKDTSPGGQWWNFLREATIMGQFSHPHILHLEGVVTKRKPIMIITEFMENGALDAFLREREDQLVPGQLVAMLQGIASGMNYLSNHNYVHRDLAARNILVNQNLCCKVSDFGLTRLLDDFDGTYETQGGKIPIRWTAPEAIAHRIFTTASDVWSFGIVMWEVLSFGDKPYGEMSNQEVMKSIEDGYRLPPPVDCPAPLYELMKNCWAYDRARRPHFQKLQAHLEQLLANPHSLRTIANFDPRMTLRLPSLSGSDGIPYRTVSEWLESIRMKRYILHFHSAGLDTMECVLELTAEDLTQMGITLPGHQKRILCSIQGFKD
456 kinases (of these 395 non-mutant kinases) (Homo sapiens, UniProt P15056), sequence (P15056 2-766 limits assumed, change not shown): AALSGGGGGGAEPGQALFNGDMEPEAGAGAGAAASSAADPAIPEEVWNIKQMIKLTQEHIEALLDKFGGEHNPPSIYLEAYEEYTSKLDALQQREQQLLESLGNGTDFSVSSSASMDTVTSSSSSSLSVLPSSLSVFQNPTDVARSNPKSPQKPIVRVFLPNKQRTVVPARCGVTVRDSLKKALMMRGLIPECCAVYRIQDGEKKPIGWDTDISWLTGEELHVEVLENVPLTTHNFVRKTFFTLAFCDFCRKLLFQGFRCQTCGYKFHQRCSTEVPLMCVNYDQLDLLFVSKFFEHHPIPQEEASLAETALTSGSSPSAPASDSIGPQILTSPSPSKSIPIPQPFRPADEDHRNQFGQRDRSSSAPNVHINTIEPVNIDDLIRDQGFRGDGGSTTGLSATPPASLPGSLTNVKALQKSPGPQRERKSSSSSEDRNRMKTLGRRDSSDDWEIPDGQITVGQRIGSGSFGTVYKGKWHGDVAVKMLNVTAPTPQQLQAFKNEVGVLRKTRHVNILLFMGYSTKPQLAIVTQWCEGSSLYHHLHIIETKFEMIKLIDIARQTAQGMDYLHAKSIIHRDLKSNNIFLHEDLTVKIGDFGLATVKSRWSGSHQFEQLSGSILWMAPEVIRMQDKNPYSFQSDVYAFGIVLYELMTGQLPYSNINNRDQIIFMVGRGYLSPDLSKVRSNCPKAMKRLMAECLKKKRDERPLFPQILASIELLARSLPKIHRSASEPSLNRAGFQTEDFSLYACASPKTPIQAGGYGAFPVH
456 kinases (of these 395 non-mutant kinases) (Homo sapiens, UniProt Q9UM73), sequence (Q9UM73 19-1620 limits assumed, change not shown): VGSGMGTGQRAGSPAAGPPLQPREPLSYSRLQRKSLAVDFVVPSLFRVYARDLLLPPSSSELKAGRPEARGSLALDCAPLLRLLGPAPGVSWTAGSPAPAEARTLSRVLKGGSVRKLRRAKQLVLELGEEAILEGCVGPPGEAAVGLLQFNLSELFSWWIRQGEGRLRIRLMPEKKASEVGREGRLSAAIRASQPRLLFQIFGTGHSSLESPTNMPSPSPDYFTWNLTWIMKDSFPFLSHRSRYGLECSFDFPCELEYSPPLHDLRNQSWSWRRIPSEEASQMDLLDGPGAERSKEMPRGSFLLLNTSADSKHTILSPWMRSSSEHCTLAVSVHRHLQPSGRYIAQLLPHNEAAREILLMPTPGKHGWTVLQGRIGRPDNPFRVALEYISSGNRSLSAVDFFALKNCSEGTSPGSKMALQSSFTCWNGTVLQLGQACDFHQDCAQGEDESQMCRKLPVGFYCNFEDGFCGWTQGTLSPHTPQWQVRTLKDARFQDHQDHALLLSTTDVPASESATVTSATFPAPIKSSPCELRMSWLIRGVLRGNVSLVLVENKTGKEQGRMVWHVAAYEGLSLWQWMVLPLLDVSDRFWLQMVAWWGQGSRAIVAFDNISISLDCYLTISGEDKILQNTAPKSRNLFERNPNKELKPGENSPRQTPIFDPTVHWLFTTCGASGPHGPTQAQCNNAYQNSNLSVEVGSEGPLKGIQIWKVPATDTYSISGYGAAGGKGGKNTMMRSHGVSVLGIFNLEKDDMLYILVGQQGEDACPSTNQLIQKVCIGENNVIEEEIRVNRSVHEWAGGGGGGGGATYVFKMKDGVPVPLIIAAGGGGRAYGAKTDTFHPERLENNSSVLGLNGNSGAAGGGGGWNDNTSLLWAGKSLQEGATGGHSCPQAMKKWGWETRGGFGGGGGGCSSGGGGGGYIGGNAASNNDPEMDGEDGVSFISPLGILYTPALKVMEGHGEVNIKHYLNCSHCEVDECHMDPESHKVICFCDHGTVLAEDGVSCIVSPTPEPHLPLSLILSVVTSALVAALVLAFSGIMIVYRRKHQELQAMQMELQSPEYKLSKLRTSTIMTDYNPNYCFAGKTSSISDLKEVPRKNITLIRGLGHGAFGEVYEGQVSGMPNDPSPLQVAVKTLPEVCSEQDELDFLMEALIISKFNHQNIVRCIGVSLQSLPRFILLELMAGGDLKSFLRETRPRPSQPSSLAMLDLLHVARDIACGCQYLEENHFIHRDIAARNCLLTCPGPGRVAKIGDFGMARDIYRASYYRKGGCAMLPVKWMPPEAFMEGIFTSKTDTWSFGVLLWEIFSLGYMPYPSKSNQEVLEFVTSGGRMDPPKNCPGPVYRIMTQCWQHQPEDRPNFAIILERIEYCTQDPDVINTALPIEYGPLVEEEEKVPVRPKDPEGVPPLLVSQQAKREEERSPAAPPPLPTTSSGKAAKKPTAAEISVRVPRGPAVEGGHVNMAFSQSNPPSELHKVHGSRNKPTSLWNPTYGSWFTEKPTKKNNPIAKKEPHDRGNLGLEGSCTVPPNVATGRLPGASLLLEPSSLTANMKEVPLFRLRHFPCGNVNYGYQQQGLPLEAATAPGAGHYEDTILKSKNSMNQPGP

## CCc1ccccc1NC(=O)c1c(C)nsc1Nc1cnc2cc(F)ccc2n1 [Example 20, N-(2-Ethylphenyl)-5-[(6-fluoroquinoxalin-2-yl)amino]-3-methyl-1,2-thiazole-4-carboxamide]
[1]
  % Ctrl @ 10 μM: 95 % Ctrl
[2]; RPS6KA5(Kin.Dom.1-N-terminal)
  % Ctrl @ 10 μM: 100 % Ctrl
[2]; RPS6KA5(Kin.Dom.2-C-terminal)
  % Ctrl @ 10 μM: 100 % Ctrl
[3]; ABL1(H396P)-nonphosphorylated
  % Ctrl @ 10 μM: 100 % Ctrl
[3]; ABL1(H396P)-phosphorylated
  % Ctrl @ 10 μM: 92 % Ctrl
[4]
  % Ctrl @ 10 μM: 100 % Ctrl
[5]
  % Ctrl @ 10 μM: 100 % Ctrl
[6]
  % Ctrl @ 10 μM: 94 % Ctrl
[7]
  % Ctrl @ 10 μM: 88 % Ctrl
[8]
  % Ctrl @ 10 μM: 100 % Ctrl
[9]
  % Ctrl @ 10 μM: 82 % Ctrl
[10]
  % Ctrl @ 10 μM: 95 % Ctrl
[11]
  % Ctrl @ 10 μM: 93 % Ctrl
[12]
  % Ctrl @ 10 μM: 100 % Ctrl
[13]
  % Ctrl @ 10 μM: 100 % Ctrl
[14]
  % Ctrl @ 10 μM: 86 % Ctrl
[15]
  % Ctrl @ 10 μM: 82 % Ctrl
[16]
  % Ctrl @ 10 μM: 88 % Ctrl
[17]
  % Ctrl @ 10 μM: 100 % Ctrl
[18]
  % Ctrl @ 10 μM: 93 % Ctrl
[19]
  % Ctrl @ 10 μM: 68 % Ctrl
[20]
  % Ctrl @ 10 μM: 85 % Ctrl
[21]
  % Ctrl @ 10 μM: 100 % Ctrl
[22]
  % Ctrl @ 10 μM: 100 % Ctrl
[23]
  % Ctrl @ 10 μM: 87 % Ctrl
[24]
  % Ctrl @ 10 μM: 77 % Ctrl
[25]
  % Ctrl @ 10 μM: 100 % Ctrl
[26]
  % Ctrl @ 10 μM: 84 % Ctrl
[27]
  % Ctrl @ 10 μM: 100 % Ctrl
[28]
  % Ctrl @ 10 μM: 100 % Ctrl
[29]
  % Ctrl @ 10 μM: 100 % Ctrl
[30]
  % Ctrl @ 10 μM: 84 % Ctrl
[31]
  % Ctrl @ 10 μM: 77 % Ctrl
[32]
  % Ctrl @ 10 μM: 100 % Ctrl
